US20080318847A1, “Use of Antagonist of Oxytocin and/or Vasopressin in Assisted Reproduction” (Ferring International Center SA, priority 2005, published 2008)
“Also recorded” adds a separate entry of the source. Bridge positions count the residues as written; N and C are the ends. Square brackets hold non-standard residues; d marks the D form. Peptide text beside a SMILES is read from it. Orn = NCCC[C@H](N)C(=O)O; Mpa = O=C(O)CCS

How the values were obtained:
[1] = tested on: uterine contractile activity; assay: Transvaginal sonography of uterine contractile activity before and during atosiban infusion at embryo transfer (IVF-ET patient); assay type: in vivo, human
Description: FIG. 1 presents a graph on uterine contractile activity assessed by transvaginal sonography in patient which case is described in example 1. Uterine contractions on graph B and C are marked with light color for better visualization. In the method of digital image analysis, due to the requirement of a high picture quality, a period of 4 minutes out of total 5 minutes recorded was selected for analysis. • A) Schematic presentation of a principle of non invasive assessment of uterine contractility (done similarly to Fanchin et al. [Hum. Reprod. 1998; 13(7):1968-74]) Description: U—uterus, En—endometrium (the inner layer of the uterus)—during the uterine contractions, changes in texture and contour of endometrium are observed, My—myometrium (the middle layer of uterus, built of smooth muscle tissue), T—testing segment, where movements of contour of endometrium representing the uterine contractile activity are assessed • B) Graph presenting uterine contractile activity before the application of oxytocin antagonist atosiban. Contractile hyperactivity is seen. Legend: ↑—uterine contraction, 1 min—segment representing 1 min of digital recording, T—testing segment, where movements of contour of endometrium reflecting the uterine contractile activity are assessed; C) Graph presenting uterine contractile activity in the time of maximal effect of oxytocin antagonist atosiban. […] Legend: ↑—uterine contraction, 1 min—segment representing 1 min of digital recording, T—testing segment, where movements of contour of endometrium reflecting the uterine contractile activity are assessed
In the 8th cycle of the treatment, a decision on application of a medicament containing atosiban (antagonist of oxytocin and vasopressin) was drawn, aiming to improve the uterine receptivity. The medicament was given in intravenous infusion, which started 60 minutes before the transfer and was continued throughout 2 hours after the transfer. […]

[2] = tested on: uterine receptivity at the embryo transfer; assay: Clinical application of atosiban at embryo transfer (IVF-ET): outcome and tolerability; assay type: in vivo, human
Text: Clinical application of medicament containing atosiban—an antagonist of oxytocin and vasopressin for increasing the uterine receptivity at the embryo transfer in the course of assisted reproduction procedure of IVF-ET (in vitro fertilization-embryo transfer).
In the 8th cycle of the treatment, a decision on application of a medicament containing atosiban (antagonist of oxytocin and vasopressin) was drawn, aiming to improve the uterine receptivity. The medicament was given in intravenous infusion, which started 60 minutes before the transfer and was continued throughout 2 hours after the transfer. 10 minutes before the start of administration (70 minutes before the transfer) transvaginal sonography with 5-minute digital registration of uterine contractions was performed. […] Immediately after, a continuous infusion of 18 mg/hour of atosiban was connected using the infusion pump and was continued throughout the next 60 minutes. 45 minutes after the initiation of the infusion, transvaginal sonography with digital image registration was repeated. Between 55th and 60th minute of infusion, a sonography-guided transfer of 2 embryos was performed. After the transfer, the dosage of atosiban was changed to 6 mg/hour. Infusion was finished 2 hours after the transfer, total dose administered was 37.5 mg.
The mode of application of atosiban described above provided the maximal effect at the time of embryo transfer (it was proven that stable concentrations of atosiban are reached about an hour after the initiation of the infusion). Patient stayed in horizontal position until an hour after termination of the infusion and limited their activities on that day. At the control visit done 2 weeks after the embryo transfer, a pregnancy test was done with positive result.

human sperm = assay: Human Sperm Motility Bioassay (embryotoxicity); assay type: cell-based
Description: In order to verify the embryotoxicity of atosiban a study on influence of atosiban on parameters of human sperm motility was performed (Human Sperm Motility Bioassay). The technique used in the study is a standard in the quality control and evaluation of embryotoxicity in IVF laboratories.
The study was performed on samples of fresh human sperm taken from 15 healthy donors with perfect seminologic parameters. After selecting the alive and motile population (swim-up ascending migration method), sperm samples were transferred to the sterile Eppendorf tubes containing Human Sperm Preparation Medium alone or with atosiban in concentrations of 300 nM, 1000 nM, 3000 nM, last concentrations being 10-fold to maximal concentrations achieved in humans in the course of treatment of preterm labor. Sperm motility assessment was performed with computer assisted sperm analyzer Hobson Sperm Tracker in the 1st, 8th and 24th hour of exposition to atosiban.
Following parameters were analyzed:
a) percentage of actively motile sperm cells (Active %); b) percentage of motile sperm cells (Motility %); c) percentage of hyperactively motile sperm cells (Hyper %), d) VSL—straight line velocity, e) VCL—total velocity, f) ALH—amplitude of lateral head displacements. Results are presented at FIG. 2 and FIG. 3. In the statistic analysis, analysis of variance (ANOVA) was applied.

[3] = after the initiation of the intravenous infusion; cited from earlier work
[4] = clinical use in preterm labor; cited from earlier work
[5] = tested on: uterine contractile activity; conditions: non pregnant humans, vasopressin administrations VAS-1 to VAS-3; Bossmar et al.; cited from earlier work
[6] = molecular target: vasopressin V1a receptors (Homo sapiens, UniProt P37288); conditions: V1a versus oxytocin receptors; cited from earlier work
Sequence of vasopressin V1a receptors (P37288 whole entry): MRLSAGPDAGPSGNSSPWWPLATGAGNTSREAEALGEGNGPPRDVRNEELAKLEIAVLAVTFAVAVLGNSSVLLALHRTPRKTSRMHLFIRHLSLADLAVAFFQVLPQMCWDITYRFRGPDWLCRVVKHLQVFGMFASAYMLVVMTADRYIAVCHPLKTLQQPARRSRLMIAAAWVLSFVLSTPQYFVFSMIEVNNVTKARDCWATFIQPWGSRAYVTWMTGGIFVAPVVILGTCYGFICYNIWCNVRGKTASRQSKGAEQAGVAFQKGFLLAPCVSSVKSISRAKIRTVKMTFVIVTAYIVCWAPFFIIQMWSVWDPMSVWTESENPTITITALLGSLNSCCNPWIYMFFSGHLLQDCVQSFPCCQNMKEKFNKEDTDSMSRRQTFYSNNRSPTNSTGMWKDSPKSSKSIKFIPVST

[7] = tested on: human pregnant myometrium; conditions: cited from earlier work
[8] = in vivo; cited from earlier work
[9] = atosiban 300 nM, 1000 nM, 3000 nM, 1st, 8th and 24th hour, ANOVA

CCOc1ccc(C[C@H]2NC(=O)CCSSC[C@@H](C(=O)N3CCC[C@H]3C(=O)N[C@@H](CCCN)C(=O)NCC(N)=O)NC(=O)[C@H](CC(N)=O)NC(=O)[C@H]([C@@H](C)O)NC(=O)[C@H]([C@@H](C)CC)NC2=O)cc1 [atosiban] ([Mpa][dY](Et)ITNCP[Orn]G-NH2; disulfide 1-6)
uterine contractions, method II (digital analysis of displacements of endometrial contour) ([1]; after the administration of atosiban i.v. (stable blood levels), 11 contractions/4 min before administration): 7 contractions/4 min | uterine contractions, method I (inspection and manual registration of contractions on an accelerated film sequence) ([1]; after the administration of atosiban i.v. (stable blood levels, 45 minutes after initiation of infusion), 15 contractions/5 min before administration): 8 contractions/5 min | uterine contractile activity (change versus before atosiban) ([1]; time of maximal effect / stable blood levels of atosiban): notably decreased; also recorded: significant reduction | pregnancy test ([2]; 2 weeks after the embryo transfer, atosiban 6.75 mg bolus, 18 mg/hour then 6 mg/hour i.v.): positive | transvaginal sonography finding ([2]; 4 weeks after the transfer): intrauterine, normal twin pregnancy | adverse reactions ([2]; bolus dose of 6.75 mg intravenously, 60 minutes before the transfer): no adverse reactions | percentages of actively motile, motile and hyperactively motile sperm (Active %, Motility %, Hyper %) versus control (human sperm; [9]): No significant differences | sperm movement parameters (VCL, VSL, ALH) versus control (human sperm; [9]): no significant differences | parameters of human sperm motility (Active %, Motility %, Hyper %, VSL, VCL, ALH) versus control samples (human sperm; atosiban 300 nM, 1000 nM, 3000 nM, in vitro, ANOVA): does not inhibit; also recorded: No significant differences | embryotoxicity (concluded from sperm motility bioassay) (human sperm; atosiban up to 3000 nM): lacks embryotoxic potential; also recorded: lack of embryotoxicity | time until stable concentrations are reached [3]: about an hour | side effects [4]: minimal side effects

COc1ccc(S(=O)(=O)N2c3ccc(Cl)cc3[C@](O)(c3ccccc3Cl)[C@@H]2C(=O)N2CCC[C@H]2C(N)=O)cc1OC [relcovaptan]
uterine contractility (area under curve of intrauterine pressure) relative to placebo [5]: decreasing the uterine contractility | receptor affinity profile [6]: greater affinity towards vasopressin V1a receptors as compared to oxytocin receptors

barusiban
inhibition of contractile activity ([7]; in the range of oxytocin concentrations that occur in humans): total inhibition | potency as inhibitor of uterine contractions compared to atosiban ([7]; in vitro): more potent | myometrium contractile activity after administration ([7]; oxytocin stimulated, in vitro, Pierzynski et al.): significantly reduced | estimated half time of a single dose [8]: 7 h
